From patent US12290521B2, “Methods and materials for identifying and treating BET inhibitor-resistant cancers” (Mayo Foundation for Medical Education and Research, priority 2018, dated 2025)
“Also recorded” adds a separate entry of the source.

Key:
Type in all cases: cell-based, human
C4-2 cells = experiment: Cell proliferation assay (MTS) and trypan blue assay
Experimental: CellTiter 96® AQueous One Solution Cell Proliferation Assay (MTS) (Promega) was used to measure cell growth according to the manufacturer's instructions. Briefly, cells were plated in 96-well plates at a density of 2,000 cells per well. At the indicated times, 20 μL of Cell Titer 96R Aqueous One Solution Reagent was added to medium. After incubating for 1 hour at 37° C. in the cell incubator, cell growth was measured in a microplate reader at 490 nm.
Trypan blue assay was performed to measure cell growth according to the manufacturer's instructions. Briefly, cells were plated in 6-well plates at a density of about 5×10^4 to about 1×10^5 cells per well. At the indicated time points, cells were trypsinized and suspended in 1 mL 1×PBS. 100 μL cells and 100 μL trypan blue solution (Sigma-Aldrich) were mixed, and the number of viable cells was measured using the Bio-Rad automated cell counter.
Cell proliferation was measured by using the MTS assay (Promega). Prostate cancer cells (2,000 per well) were seeded in 96-well plates with 100 μL of culture medium. Each well was added with 20 μL of CellTiter 96R AQueous One Solution Reagent (Promega) and absorbance was measured in a microplate reader at 490 nm.

BRD4 = experiment: ChIP-seq and ChIP-qPCR of BRD4 binding in C4-2 cells; settings: control and SPOP-F133V C4-2 cells; JQ1 1 μM, 24 hours
Experimental: ChIP was performed as described elsewhere (Boyer et al., Cell, 122:947-956 (2005)). ChIP-seq libraries were prepared using the methods as described elsewhere (Boyer et al., Cell, 122:947-956 (2005)), and high throughput sequencing was performed using the Illumina HiSeq2000 platforms. The data were analyzed using the following pipeline: ChIP-seq raw reads were aligned to the human reference genome (GRCh37/hg19) using Bowtie2 (2.2.9), and reads mapped to one or two locations were kept for further analysis. Peak calling was performed by MACS2 (2.1.1) with p-value threshold of 1e-5. BigWig files were generated for visualization with the UCSC genome browser or IGV. GREAT (bejerano.stanford.edu/great/public/html/) was used to assign peaks to their potential target genes (a peak-gene association was determined if the peak fell into 2 kb region centering on the transcription start site of the gene). The common BRD4 target genes induced by SPOP F133V and HA-BRD4 expression were determined independently in each of two biological repeat experiments. Raw and processed data were deposited into NCBI Gene Expression Omnibus with accession number GSE88872.
For ChIP-qPCR experiments, DNAs pulled down by antibodies or non-specific IgG were amplified by real-time PCR. […]

SPOP and BRD2/3/4 = experiment: Western blot, co-IP and in vivo ubiquitination assay in 293T cells; settings: JQ1 1 μM, 24 hours
Experimental: To immunoprecipitate the ectopically expressed FLAG-tagged proteins, transfected cells were lysed 24 hours post-transfection in BC100 buffer. The whole-cell lysates were immunoprecipitated with the monoclonal anti-FLAG antibody-conjugated M2 agarose beads (Sigma-Aldrich) at 4° C. overnight. After three washes with lysis buffer, followed by two washes with BC100 buffer, the bound proteins were eluted using FLAG-Peptide (Sigma-Aldrich) prepared in BC100 for 3 hours at 4° C. The eluted protein sample was resolved by SDS-PAGE. To immunoprecipitate the endogenous proteins, cells were lysed with 1× cell lysis buffer (Cell Signaling Technology), and the lysate was centrifuged. The supernatant was precleared with protein A/G beads (Sigma-Aldrich) and incubated with the indicated antibody and protein A/G beads at 4° C. overnight. Beads were washed five times with lysis buffer and resuspended in sample buffer and analyzed by SDS-PAGE.
Cell lysates or immunoprecipitates were subjected to SDS-PAGE, and proteins were transferred to nitrocellulose membranes (GE Healthcare Sciences). The membranes were blocked in Tris-buffered saline (TBS, pH 7.4) containing 5% non-fat milk and 0.1% Tween-20, washed twice in TBS containing 0.1% Tween-20, and incubated with primary antibody overnight at 4° C., followed by secondary antibody for 1 hour at room temperature. The proteins of interest were visualized using ECL chemiluminescence system (Santa Cruz Biotechnology). Densitometry analysis of protein bands was analyzed on the Gel-Pro Analyzer software.
For the in vivo ubiquitination assay, C4-2 cells were transfected with plasmids for HA-Ub, FLAG-BRD4, and other indicated proteins. C ells were treated with 20 μM MG132 for 8 hours before being harvested and lysed with lysis buffer (50 mM Tris-HCl, pH 7.5, 150 mM NaCl, 1% NP40, 0.5% sodium deoxycholate, 1× protease inhibitor cocktail (PIC)). The lysate was subjected to co-immunoprecipitation using anti-FLAG-conjugated agarose beads as described in the Co-IP assay.

Cc1sc2c(c1C)C(c1ccc(Cl)cc1)=N[C@@H](CC(=O)OC(C)(C)C)c1nnc(C)n1-2 [JQ1]
sensitivity of cell growth to JQ1 (C4-2 cells; BRD4 knockout C4-2 cells with BRD2/3 largely depleted, JQ1 up to 500 nM, 24 hours): highly resistant | sensitivity of cell growth to JQ1 (C4-2 cells; SPOP F133V-expressing C4-2 cells, JQ1 2 μM, MTS): JQ1 resistance | effect on cell growth (C4-2 cells; SPOP-F133V-expressing C4-2 cells, JQ1 0.25 μM every other day): largely impeded | effect on cell growth (C4-2 cells; SPOP-knockdown C4-2 cells, JQ1 0.25 μM every other day): largely attenuated | cell growth (C4-2 cells; control (shC / EV) C4-2 cells, JQ1 0.25 μM every other day): robustly inhibited; also recorded: inhibited growth | BRD4 binding in the AR gene promoter (BRD4): largely decreased | BRD4 binding in the MYC gene enhancer (BRD4): substantial reduction | SPOP-BRD2/3/4 protein interaction (SPOP and BRD2/3/4): diminished | SPOP-induced BRD2/3/4 ubiquitination and degradation (SPOP and BRD2/3/4): partially blocked
